The numbers were not newly measured in patent publication US12391711B2 (priority 2020, dated 2025), which cites them from elsewhere.

For this data set the following is noted: human, Pain Res. Manag., 2005, 10: 15A-22A.

Take `CCCCCc1cc(O)c2c(c1)OC(C)(C)[C@@H]1CCC(C)=C[C@@H]21` [THC, (6aR,10aR)-6,6,9-trimethyl-3-pentyl-6a,7,8,10a-tetrahydro-6H-benzo[c]chromen-1-ol]: the oral bioavailability is given as 4%-12%.
